Measurements from patent publication US9737544B2, “Compounds” (ASTEX THERAPEUTICS LIMITED, priority 2012, dated 2017).

Experiments:
Assay type in all cases: cell-based
[1] = test system: Ba/F3-KDR-transfected cells; assay: Ba/F3-KDR (minus IL3 or plus IL3) cellular proliferation assay; settings: 24 h, read-out: BAF3-KDR (MIN IL3) pIC50 (converted)
[2] = test system: Ba/F3-FGFR1-transfected cells; assay: Ba/F3-FGFR1 (minus IL3 or plus IL3) cellular proliferation assay; settings: 24 h, read-out: BAF3-FGFR1 (MIN IL3) pIC50 (converted)
[3] = test system: Ba/F3-FGFR3-transfected cells; assay: Ba/F3-FGFR3 (minus IL3 or plus IL3) cellular proliferation assay; settings: 24 h, read-out: BAF3-FGFR3 (MIN IL3) pIC50 (converted)
[4] = test system: Ba/F3-FGFR4-transfected cells; assay: Ba/F3-FGFR4 cellular proliferation assay; settings: 24 h, read-out: BAF3-FGFR 4 pIC50 (converted)

SMILES	IC50 [1]	IC50 [2]	IC50 [3]	IC50 [4]
COc1cc(OC)cc(C(C)(O)c2ccc3ncc(-c4cnn(C)c4)nc3n2)c1 (stereo not shown) [Compound 3]	> 10 µM	> 10 µM	–	–
COc1cc(OC)cc(C(OCCO)c2ccc3ncc(-c4cnn(C)c4)cc3n2)c1 (stereo not shown) [Compound 11]	> 10 µM	–	–	–
COc1cc(OC)cc(C(CCO)c2ccc3ncc(-c4cnn(C)c4)nc3n2)c1 (stereo not shown) [Compound 14]	> 10 µM	–	–	–
COc1cc(OC)cc(C(O)c2ccc3ncc(-c4cnn(C)c4)cc3n2)c1 (stereo not shown) [Compound 10]	> 10 µM	–	–	–
COc1cc(OC)cc(C(O)c2ccc3ncc(-c4cnn(C)c4)nc3n2)c1 (stereo not shown) [Compound 2]	> 10 µM	–	–	–
CCOC(=O)CC(c1cc(OC)cc(OC)c1)c1cc2cc(-c3cnn(C)c3)cnc2cn1 (stereo not shown) [Compound 24]	> 10 µM	> 10 µM	> 10 µM	> 10 µM
COC(=O)CC(c1cc(OC)cc(OC)c1)c1ccc2ncc(-c3cnn(C)c3)nc2n1 (stereo not shown) [Compound 4]	> 10 µM	–	–	> 10 µM
COc1cccc(C(O)c2ccc3ncc(-c4cnn(C)c4)cc3n2)c1 (stereo not shown) [Compound 17]	> 10 µM	> 10 µM	–	–
CCOC(=O)CC(c1cc(OC)cc(OC)c1)c1ccc2ncc(N3CCOCC3)cc2n1 (stereo not shown) [Compound 21]	> 10 µM	> 10 µM	–	> 10 µM
COc1cc(OC)cc(C(Cc2nccn2S(=O)(=O)N(C)C)c2ccc3ncc(-c4cnn(C)c4)nc3n2)c1 (stereo not shown) [Compound 15]	> 10 µM	–	–	–
COc1cc(OC)cc(C(=O)c2ccc3ncc(N4CCOCC4)cc3n2)c1 [Compound 20]	> 10 µM	> 10 µM	–	> 10 µM
COc1cccc(C(=O)c2cc3cc(-c4cnn(C)c4)cnc3cn2)c1 [Compound 26]	–	> 10 µM	> 10 µM	> 10 µM
COc1cccc(C(=O)c2ccc3ncc(-c4cnn(C)c4)cc3n2)c1 [Compound 16]	> 10 µM	> 10 µM	–	–
COc1cc(OC)cc(C(=O)c2cc3cc(-c4cnn(C)c4)cnc3cn2)c1 [Compound 23]	> 10 µM	> 10 µM	–	> 10 µM
COc1cc(OC)cc(C(=O)c2ccc3ncc(-c4cnn(C)c4)cc3n2)c1 [Compound 8]	> 10 µM	–	–	> 10 µM
